Laboratory results published in PubChem BioAssay AID2060622 (Molecular Pharmacology Branch, DTP, NCI, 2025).
Several values for one entry are separate records, joined by “and”; a condition that tells them apart may be missing. Identical values can stand only once. One block for each compound: values may come before it.

Tested on: 242566-281-R-J2-PDC complex spheroid viability
Assay: Anticancer human tumor 242566-281-R-J2-PDC patient-derived pancreatic carcinoma cell line growth inhibition [CLK]
Conditions: for viability, T/C: stronger effect = lower value
Method in brief: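 Multi-cell-type spheroids combined patient-derived tumor cells with HUVEC endothelial cells and human mesenchymal stem cells. Paired agents were dosed in half-log steps down from about clinical Cmax, or from 10 microM where Cmax was unknown.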

[1] = curve of first compound, second compound 0.0316 µM
[2] = curve of first compound, second compound 0.1 µM
[3] = curve of first compound, second compound 0.316 µM
[4] = curve of first compound, second compound 1 µM
[5] = curve of first compound, second compound 3.16 µM
[6] = curve of first compound, second compound 10 µM
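Further: spheroids exposed to compounds for 7 days before readout.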
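Wherever viability, T/C is given: 100% = DMSO vehicle control wells.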

Structure (SMILES): NC(=O)C(=Cn1cnc(-c2cc(C(F)(F)F)cc(C(F)(F)F)c2)n1)c1cncnc1 + CN1CCN(c2cc(C(=O)Nc3cc4cc(-c5cnn(C)c5)ccc4cn3)ccn2)CC1
IC50 [1]: 978 nM
IC50 [2]: 465 nM
IC50 [3]: < 9.49 nM
IC50 [4]: < 9.49 nM
IC50 [5]: < 9.49 nM
IC50 [6]: < 9.49 nM
viability, T/C (second compound 0.0316 µM, first compound 0.00949 µM): 99.3%
viability, T/C (second compound 0.0316 µM, first compound 0.03 µM): 106%
viability, T/C (second compound 0.0316 µM, first compound 0.0949 µM): 97%
viability, T/C (second compound 0.0316 µM, first compound 0.3 µM): 84.1%
viability, T/C (second compound 0.0316 µM, first compound 0.949 µM): 50.9%
viability, T/C (second compound 0.0316 µM, first compound 3 µM): 19.7%
viability, T/C (second compound 0.1 µM, first compound 0.00949 µM): 92.5%
viability, T/C (second compound 0.1 µM, first compound 0.03 µM): 83.6%
viability, T/C (second compound 0.1 µM, first compound 0.0949 µM): 84.4%
viability, T/C (second compound 0.1 µM, first compound 0.3 µM): 60%
viability, T/C (second compound 0.1 µM, first compound 0.949 µM): 31.7%
viability, T/C (second compound 0.1 µM, first compound 3 µM): 7.32%
viability, T/C (second compound 0.316 µM, first compound 0.00949 µM): 29.2%
viability, T/C (second compound 0.316 µM, first compound 0.03 µM): 16.8%
viability, T/C (second compound 0.316 µM, first compound 0.0949 µM): 6.44%
viability, T/C (second compound 0.316 µM, first compound 0.3 µM): 3.56%
viability, T/C (second compound 0.316 µM, first compound 0.949 µM): 3.41%
viability, T/C (second compound 0.316 µM, first compound 3 µM): 4.67%
viability, T/C (second compound 1 µM, first compound 0.00949 µM): 3.11%
viability, T/C (second compound 1 µM, first compound 0.03 µM): 4.63%
viability, T/C (second compound 1 µM, first compound 0.0949 µM): 6.18%
viability, T/C (second compound 1 µM, first compound 0.3 µM): 6.13%
viability, T/C (second compound 1 µM, first compound 0.949 µM): 6.09%
viability, T/C (second compound 1 µM, first compound 3 µM): 5.22%
viability, T/C (second compound 3.16 µM, first compound 0.00949 µM): 5.89%
viability, T/C (second compound 3.16 µM, first compound 0.03 µM): 6.16%
viability, T/C (second compound 3.16 µM, first compound 0.0949 µM): 8.1%
viability, T/C (second compound 3.16 µM, first compound 0.3 µM): 7.76%
viability, T/C (second compound 3.16 µM, first compound 0.949 µM): 7.74%
viability, T/C (second compound 3.16 µM, first compound 3 µM): 6.2%
viability, T/C (second compound 10 µM, first compound 0.00949 µM): 1.11%
viability, T/C (second compound 10 µM, first compound 0.03 µM): 1.56%
viability, T/C (second compound 10 µM, first compound 0.0949 µM): 0.89%
viability, T/C (second compound 10 µM, first compound 0.3 µM): 1.02%
viability, T/C (second compound 10 µM, first compound 0.949 µM): 0.68%
viability, T/C (second compound 10 µM, first compound 3 µM): 0.27%

IC50 (curve of compound): > 10000 nM
Structure (SMILES): CC(CO)NC(=O)c1cc(-c2ccc(Cl)cc2)nn(-c2cnn(C)c2)c1=O (stereo unspecified)
viability, T/C (compound 0.0316 µM): 94.4% and 97.3%
viability, T/C (compound 0.1 µM): 96.2% and 94.5%
viability, T/C (compound 0.316 µM): 85.6% and 102%
viability, T/C (compound 1 µM): 116% and 98.1%
viability, T/C (compound 3.16 µM): 131% and 97.1%
viability, T/C (compound 10 µM): 75.8% and 82.5%

IC50 [1]: 50.9 nM
IC50 [2]: 52 nM
IC50 [3]: 29 nM
IC50 [4]: 8.6 nM
IC50 [5]: < 3.16 nM
IC50 [6]: < 3.16 nM
Structure (SMILES): COc1c(OCCCN2CCOCC2)ccc2c3n(c(=NC(=O)c4cnc(N)nc4)nc12)CCN3 + CNC(=O)c1ccc(Nc2nc(OC3CCCC3)c3c(-c4ccc5nc(C)oc5c4)c[nH]c3n2)c(OC)c1
viability, T/C (second compound 0.0316 µM, first compound 0.00316 µM): 104%
viability, T/C (second compound 0.0316 µM, first compound 0.01 µM): 86.1%
viability, T/C (second compound 0.0316 µM, first compound 0.0316 µM): 64.7%
viability, T/C (second compound 0.0316 µM, first compound 0.1 µM): 31.1%
viability, T/C (second compound 0.0316 µM, first compound 0.316 µM): 19.5%
viability, T/C (second compound 0.0316 µM, first compound 1 µM): 14.2%
viability, T/C (second compound 0.1 µM, first compound 0.00316 µM): 72.9%
viability, T/C (second compound 0.1 µM, first compound 0.01 µM): 98.3%
viability, T/C (second compound 0.1 µM, first compound 0.0316 µM): 64.4%
viability, T/C (second compound 0.1 µM, first compound 0.1 µM): 29.2%
viability, T/C (second compound 0.1 µM, first compound 0.316 µM): 18.8%
viability, T/C (second compound 0.1 µM, first compound 1 µM): 14.4%
viability, T/C (second compound 0.316 µM, first compound 0.00316 µM): 81.4%
viability, T/C (second compound 0.316 µM, first compound 0.01 µM): 70.9%
viability, T/C (second compound 0.316 µM, first compound 0.0316 µM): 48.8%
viability, T/C (second compound 0.316 µM, first compound 0.1 µM): 23.9%
viability, T/C (second compound 0.316 µM, first compound 0.316 µM): 15.1%
viability, T/C (second compound 0.316 µM, first compound 1 µM): 10.7%
viability, T/C (second compound 1 µM, first compound 0.00316 µM): 61.5%
viability, T/C (second compound 1 µM, first compound 0.01 µM): 47%
viability, T/C (second compound 1 µM, first compound 0.0316 µM): 31.2%
viability, T/C (second compound 1 µM, first compound 0.1 µM): 14.6%
viability, T/C (second compound 1 µM, first compound 0.316 µM): 9.5%
viability, T/C (second compound 1 µM, first compound 1 µM): 10.9%
viability, T/C (second compound 3.16 µM, first compound 0.00316 µM): 42.9%
viability, T/C (second compound 3.16 µM, first compound 0.01 µM): 33.5%
viability, T/C (second compound 3.16 µM, first compound 0.0316 µM): 24.6%
viability, T/C (second compound 3.16 µM, first compound 0.1 µM): 12.5%
viability, T/C (second compound 3.16 µM, first compound 0.316 µM): 9.35%
viability, T/C (second compound 3.16 µM, first compound 1 µM): 10.2%
viability, T/C (second compound 10 µM, first compound 0.00316 µM): 39.3%
viability, T/C (second compound 10 µM, first compound 0.01 µM): 32.5%
viability, T/C (second compound 10 µM, first compound 0.0316 µM): 25%
viability, T/C (second compound 10 µM, first compound 0.1 µM): 11.4%
viability, T/C (second compound 10 µM, first compound 0.316 µM): 8.81%
viability, T/C (second compound 10 µM, first compound 1 µM): 10.2%
